Experimental data taken from patent US10072020B1, “Isatin spiro compounds with antibacterial activities and a method of preparing the same” (SHAANXI UNIVERSITY OF SCIENCE AND TECHNOLOGY, priority 2018, dated 2018).
Converted amounts (≈) assume the structure as drawn.

Experiments:
Assay in all cases: Antibacterial activity test, MIC by agar dilution
Format in all cases: cell-based
[1] = system: Escherichia coli ATCC 25922; settings: ATCC25922, MH agar plate two-fold dilution, 25° C. for 18-24 hours, read-out: Minimum Inhibitory Concentrations
Description: (§1) Antibacterial Activity Test of the Compounds of the Invention
(§2) The compounds were tested for their antibacterial activities using the following standard strains: Escherichia coli ATCC 25922, Escherichia coli 10-1, and Escherichia coli 10-2.
(§3) Preparation of Escherichia coli strains and bacterial liquid: the test strains (Escherichia coli ATCC 25922, Escherichia coli 10-1, and Escherichia coli 10-2) stock solutions were seeded in LB solid Media Petri dishes and placed in a 37° C. incubator overnight. The next day, single colonies were picked from LB solid petri dishes and inoculated into 6-10 mL LB liquid medium and cultured with shaking at 150 rpm for 3 hours at 37° C. 100 μL of the liquid was evenly coated on an LB solid plate, and inverted in an incubator at 37° C. overnight. Viable cells in the logarithmic growth phase were collected after 16-18 hours, and sterile water was added to form a bacteria suspension with the number of bacteria being 106 CFu·mL^−1.
(§4) Preparation of compound-containing agar plate: MH agar was heated to dissolve and placed in 45-50° C. water bath to balance, the compounds were added at different concentrations (160, 300, 600 μg·mL^−1). The mixtures were mixed evenly and poured onto sterilization plates, placed into a sealed plastic bag at 2-8° C.
(§5) Determination of the minimum inhibitory concentration: the minimum inhibitory concentrations (MICs) of the test compounds on the test bacteria were determined by diluting the agar plate two-fold. Multi-point inoculation instrument was used to inoculate bacteria to the MH agar medium that contains the compounds, forming a plaque with a diameter of 5 to 8 mm. After the plates were incubated at 25° C. for 18-24 hours, the growth state of the bacteria was observed, and the minimum compound concentration for inhibiting the growth of the bacteria was the MIC.

Escherichia coli 10-2 = settings: 102, MH agar plate two-fold dilution, 25° C. for 18-24 hours, read-out: Minimum Inhibitory Concentrations
Description: as §1, §2, §3, §4, §5

Escherichia coli 10-1 = settings: 101, MH agar plate two-fold dilution, 25° C. for 18-24 hours, read-out: Minimum Inhibitory Concentrations
Description: as §1, §2, §3, §4, §5

| Structure (SMILES) | MIC [1] [µg/mL] | MIC (Escherichia coli 10-2) [µg/mL] | MIC (Escherichia coli 10-1) [µg/mL] |
| --- | --- | --- | --- |
| CN1C(=O)[C@@]2(OC=C2C=O)c2cc(Cl)ccc21 [Compound 3, (R)-5-chloro-1-methyl-2-oxospiro[indoline-3,2′-oxete]-3′-carbaldehyde] | 300 (≈ 1200 µM) | 300 (≈ 1200 µM) | 160 (≈ 641 µM) |
| CN1C(=O)[C@@]2(OC=C2C=O)c2cc(Br)ccc21 [Compound 1, (R)-5-bromo-1-methyl-2-oxospiro[indoline-3,2′-oxete]-3′-carbaldehyde] | 300 (≈ 1020 µM) | 160 (≈ 544 µM) | 160 (≈ 544 µM) |
| CN1C(=O)[C@@]2(OC(c3ccccc3)=C2C(=O)c2ccccc2)c2cc(Cl)ccc21 [Compound 7, (R)-3′-benzoyl-5-chloro-1-methyl-4′-phenylspiro[indoline-3,2′-oxet]-2-one] | 300 (≈ 747 µM) | 300 (≈ 747 µM) | 160 (≈ 398 µM) |
| CCN1C(=O)[C@@]2(OC=C2C=O)c2cc(Br)ccc21 [Compound 13, (R)-5-bromo-1-ethyl-2-oxospiro[indoline-3,2′-oxete]-3′-carbaldehyde] | 160 (≈ 519 µM) | 160 (≈ 519 µM) | 300 (≈ 974 µM) |
| O=C1Nc2ccccc2C1=O [isatin] | > 600 | 160 (≈ 1090 µM) | 300 (≈ 2040 µM) |
| CN1C(=O)[C@@]2(OC=C2C=O)c2cccc(Cl)c21 [Compound 4, (R)-7-chloro-1-methyl-2-oxospiro[indoline-3,2′-oxete]-3′-carbaldehyde] | > 600 | 160 (≈ 641 µM) | 300 (≈ 1200 µM) |
| CCN1C(=O)[C@@]2(OC=C2C(=O)c2ccccc2)c2cc(Br)ccc21 [Compound 9, (R)-3′-benzoyl-5-bromo-1-ethylspiro[indoline-3,2′-oxet]-2-one] | 300 (≈ 781 µM) | 160 (≈ 416 µM) | 300 (≈ 781 µM) |

The next lines start with the values.

| MIC [1] [µg/mL] | MIC (Escherichia coli 10-2) [µg/mL] | MIC (Escherichia coli 10-1) [µg/mL] | Structure (SMILES) |
| --- | --- | --- | --- |
| 300 (≈ 1020 µM) | > 160 | 160 (≈ 544 µM) | CN1C(=O)[C@@]2(OC=C2C=O)c2cccc(Br)c21 [Compound 2, (R)-7-bromo-1-methyl-2-oxospiro[indoline-3,2′-oxete]-3′-carbaldehyde] |
| 160 (≈ 398 µM) | 300 (≈ 747 µM) | 300 (≈ 747 µM) | CN1C(=O)[C@@]2(OC(c3ccccc3)=C2C(=O)c2ccccc2)c2cccc(Cl)c21 [Compound 8, (R)-3′-benzoyl-7-chloro-1-methyl-4′-phenylspiro[indoline-3,2′-oxet]-2-one] |
| 160 (≈ 306 µM) | 300 (≈ 574 µM) | 160 (≈ 306 µM) | O=C(C1=C(c2ccccc2)O[C@@]12C(=O)N(Cc1ccccc1)c1c(Br)cccc12)c1ccccc1 [Compound 15] |
| 160 (≈ 359 µM) | 300 (≈ 672 µM) | 300 (≈ 672 µM) | CN1C(=O)[C@@]2(OC(c3ccccc3)=C2C(=O)c2ccccc2)c2cc(Br)ccc21 [Compound 5, (R)-3′-benzoyl-5-bromo-1-methyl-4′-phenylspiro[indoline-3,2′-oxet]-2-one] |
| 300 (≈ 883 µM) | 300 (≈ 883 µM) | 160 (≈ 471 µM) | CCN1C(=O)[C@@]2(OC(c3ccccc3)=C2C=O)c2cccc(Cl)c21 [Compound 12, (R)-7-chloro-1-ethyl-2-oxo-4′-phenylspiro[indoline-3,2′-oxete]-3′-carbaldehyde] |
| 160 (≈ 372 µM) | 160 (≈ 372 µM) | 300 (≈ 698 µM) | CCCN1C(=O)[C@@]2(OC(c3ccccc3)=C2C(=O)c2ccccc2)c2cc(Cl)ccc21 [Compound 16, (R)-3′-benzoyl-5-chloro-4′-phenyl-1-propylspiro[indoline-3,2′-oxet]-2-one] |
| > 600 | 160 (≈ 452 µM) | 160 (≈ 452 µM) | CCCN1C(=O)[C@@]2(OC=C2C(=O)c2ccccc2)c2cc(Cl)ccc21 [Compound 11, (R)-3′-benzoyl-5-chloro-1-propylspiro[indoline-3,2′-oxet]-2-one] |
| 300 (≈ 921 µM) | 160 (≈ 491 µM) | 160 (≈ 491 µM) | O=CC1=CO[C@@]12C(=O)N(Cc1ccccc1)c1c(Cl)cccc12 [Compound 14] |
| 300 (≈ 672 µM) | 300 (≈ 672 µM) | > 600 | CN1C(=O)[C@@]2(OC(c3ccccc3)=C2C(=O)c2ccccc2)c2cccc(Br)c21 [Compound 6, (R)-3′-benzoyl-7-bromo-1-methyl-4′-phenylspiro[indoline-3,2′-oxet]-2-one] |
| 300 (≈ 753 µM) | > 600 | 160 (≈ 402 µM) | CCCN1C(=O)[C@@]2(OC(c3ccccc3)=C2C=O)c2cccc(Br)c21 [Compound 10, (R)-7-bromo-2-oxo-4′-phenyl-1-propylspiro[indoline-3,2′-oxete]-3′-carbaldehyde] |
